Data published in patent publication US20260001871A1, “TRIAZOLE DERIVATIVES AS MODULATORS OF MAS-RELATED G-PROTEIN RECEPTOR D” (ESCIENT PHARMACEUTICALS, INC., priority 2022, published 2026).

Target: human MRGPRD (Homo sapiens, UniProt Q8TDS7)
Experiment: MRGPRD antagonist activity, IP-One HTRF assay in CHO cells stably expressing human MRGPRD (versus 100 μM β-Alanine agonist)
Type: cell-based
Summary of the method: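 IP-1 HTRF read-out, with IC50 from HTRF ratio curves and percent antagonism relative to maximal efficacy (mean, SEM). Antagonists and agonist were co-incubated 1 h at 37 °C plus 1 h at room temperature on overnight-plated MRGPRD-CHO cells in LiCl-containing Tris buffer, pH 8.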

human MRGPRD, sequence (Q8TDS7 whole entry): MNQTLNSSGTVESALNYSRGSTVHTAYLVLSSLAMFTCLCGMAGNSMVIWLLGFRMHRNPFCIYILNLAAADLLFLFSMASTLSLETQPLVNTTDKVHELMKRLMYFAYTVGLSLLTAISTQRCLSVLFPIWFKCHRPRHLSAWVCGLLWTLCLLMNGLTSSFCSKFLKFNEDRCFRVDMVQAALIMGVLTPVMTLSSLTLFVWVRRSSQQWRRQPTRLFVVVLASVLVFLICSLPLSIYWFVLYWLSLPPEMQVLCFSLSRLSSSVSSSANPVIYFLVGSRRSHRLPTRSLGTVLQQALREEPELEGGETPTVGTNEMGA

CC(NC(=O)c1nnn(-c2ccc(-c3ccccc3)cc2)c1C1CC1)c1cncnc1 (stereo not shown) [Compound 14-8]
IC50: > 3000 nM

COc1ccc(-c2cccc(-n3nnc(C(=O)Nc4ccncc4)c3C3CC3)c2)cc1OC [Compound 7-313]
IC50: 1000 to 3000 nM

CCn1cc(CNC(=O)c2nnn(-c3ccc(-c4c(C)nn(C)c4C)cc3)c2C2CC2)cn1 [Compound 15-19]
IC50: 100 to 500 nM

Cn1cc(C2(NC(=O)c3nnn(-c4ccc(-c5ccccc5)cc4)c3C3CC3)CC2)cn1 [Compound 14-69]
IC50: 1000 to 3000 nM

Cc1cc(-c2ccc(-n3nnc(C(=O)Nc4ccncc4)c3C3CC3)cc2)c(C)s1 [Compound 7-121]
IC50: 500 to 1000 nM

O=C(Nc1ccncc1)c1nnn(-c2cccc(-c3cccc(-c4ccccc4)c3)c2)c1C1CC1 [Compound 7-328]
IC50: > 3000 nM

COCc1ccc(-c2ccc(-n3nnc(C(=O)Nc4ccncc4)c3C3CC3)cc2)cc1 [Compound 7-46]
IC50: 100 to 500 nM

Cc1nn(-c2ccccc2)cc1-c1cccc(-n2nnc(C(=O)Nc3ccncc3)c2C2CC2)c1 [Compound 7-281]
IC50: 500 to 1000 nM

COc1ccc(-c2ccc(-n3nnc(C(=O)Nc4ccncc4)c3C3CC3)cc2)cc1 [Compound 7-27]
IC50: 100 to 500 nM

Cc1nn(C)cc1-c1cccc(-n2nnc(C(=O)Nc3ccncc3)c2C2CC2)c1 [Compound 7-316]
IC50: 1000 to 3000 nM

O=C(Nc1ccncc1)c1nnn(-c2ccc(-c3cccc(C4CCCCC4)c3)cc2)c1C1CC1 [Compound 7-166]
IC50: 1000 to 3000 nM

Cn1cc(-c2ccc(-n3nnc(C(=O)Nc4ccncc4)c3C3CC3)cc2)cn1 [Compound 7-126]
IC50: 500 to 1000 nM

CC(C)Oc1ccc(-c2ccc(-n3nnc(C(=O)Nc4ccncc4)c3C3CC3)cc2)cc1 [Compound 7-131]
IC50: 500 to 1000 nM

O=C(Nc1ccncc1)c1nnn(-c2cccc(-c3cn[nH]c3)c2)c1C1CC1 [Compound 7-310]
IC50: 1000 to 3000 nM

CCn1cc(NC(=O)c2nnn(-c3ccc(-c4ccccc4)cc3)c2C2CC2)cn1 [Compound 14-45]
IC50: 1000 to 3000 nM

Cc1nn(C)c2ccnc(NC(=O)c3nnn(-c4ccc(-c5ccccc5)cc4)c3C3CC3)c12 [Compound 14-51]
IC50: 1000 to 3000 nM

CCn1cc(CNC(=O)c2nnn(-c3ccc(-c4ccc(C#N)cc4)cn3)c2C(C)C)cn1 [Compound 17-20]
IC50: 100 to 500 nM

Cc1cc(NC(=O)c2nnn(-c3ccc(-c4c(C)nn(C5CCC5)c4C)cc3)c2C2CC2)ccn1 [Compound 8-2, 1-(4-(1-cyclobutyl-3,5-dimethyl-1H-pyrazol-4-yl)phenyl)-5-cyclopropyl-N-(2-methylpyridin-4-yl)-1H-1,2,3-triazole-4-carboxamide]
IC50: < 100 nM

CCc1ccc(C2(NC(=O)c3nnn(-c4ccc(-c5ccc(C#N)cc5C)cc4)c3C3CC3)CC2)cn1 [Compound 9-17]
IC50: 100 to 500 nM

Cc1ccc(-n2nnc(C(=O)Nc3ccncc3)c2C2CC2)cc1O [Compound 4-4]
IC50: 1000 to 3000 nM

O=C(Nc1ccncc1)c1nnn(-c2cccc(-c3cccc(C(F)(F)F)c3)c2)c1C1CC1 [Compound 7-294]
IC50: 1000 to 3000 nM

Cc1nn(C)c(C)c1-c1ccc(-n2nnc(C(=O)Nc3ccccc3)c2C(C)C)cc1 [Compound 17-16]
IC50: 100 to 500 nM

N#Cc1ccc(-c2ccc(-n3nnc(C(=O)Nc4ccncc4)c3C3CC3)cc2)c(F)c1 [Compound 7-54]
IC50: 100 to 500 nM

Cn1ccc(-c2ccc(-n3nnc(C(=O)Nc4ccncc4)c3C3CC3)cc2)c1 [Compound 7-55]
IC50: 100 to 500 nM

Cc1ccc(CNC(=O)c2nnn(-c3ccc(-c4cnn(Cc5ccccc5)c4)cc3)c2C2CC2)cn1 [Compound 7-108]
IC50: 100 to 500 nM

CCn1nc(C)c(-c2ccc(-n3nnc(C(=O)N4Cc5cnn(C)c5C4)c3C3CC3)cc2)c1C [Compound 9-32]
IC50: 1000 to 3000 nM

O=C(Nc1ccncc1)c1nnn(-c2ccc(-c3ccc4c(c3)CCC4)cc2)c1C1CC1 [Compound 7-64]
IC50: 100 to 500 nM

CCn1nc(C)c(-c2ccc(-n3nnc(C(=O)NCc4cnn(C)c4)c3C3CC3)cc2)c1C [Compound 9-18]
IC50: 100 to 500 nM

CCn1nc(C)c(-c2ccc(-n3nnc(C(=O)NCc4cnccc4C)c3C3CC3)cc2)c1C [Compound 9-23]
IC50: 100 to 500 nM

Cc1cc(NC(=O)c2nnn(-c3ccc(-c4ccc(C#N)cc4)cc3OC(F)(F)F)c2C2CC2)ccn1 [Compound 7-53]
IC50: 100 to 500 nM

Cc1csc(-c2ccc(-n3nnc(C(=O)Nc4ccncc4)c3C3CC3)cc2)n1 [Compound 7-140]
IC50: 500 to 1000 nM

Cc1ccc(-c2ccc(-n3nnc(C(=O)Nc4ccnc(C)c4)c3C3CC3)cc2)cn1 [Compound 17-9]
IC50: 100 to 500 nM

COc1ccc(-c2cccc(-n3nnc(C(=O)Nc4ccncc4)c3C3CC3)c2)cc1F [Compound 7-303]
IC50: 1000 to 3000 nM

COc1ccccc1-c1cccc(-n2nnc(C(=O)Nc3ccncc3)c2C2CC2)c1 [Compound 7-320]
IC50: 1000 to 3000 nM

CC(=O)c1ccc(-c2ccc(-n3nnc(C(=O)Nc4ccncc4)c3C3CC3)c(C)c2)cc1 [Compound 7-231]
IC50: 100 to 500 nM

CC(=O)c1ccc(-c2cccc(-n3nnc(C(=O)NCc4ccc(C)nc4)c3C3CC3)c2)c(F)c1 [Compound 7-297]
IC50: 1000 to 3000 nM

O=C(Nc1ccncc1)c1nnn(-c2ccc(-c3cccc(CC(F)(F)F)c3)cc2)c1C1CC1 [Compound 7-107]
IC50: 100 to 500 nM

Cc1cnc(-c2ccc(-n3nnc(C(=O)Nc4ccncc4)c3C3CC3)cc2)s1 [Compound 7-89]
IC50: 100 to 500 nM

Cc1nn(C)c(C)c1-c1ccc(-n2nnc(C(=O)NC3C(C)(C)C3(C)C)c2C(C)C)cc1 [Compound 17-24]
IC50: 100 to 500 nM

CCn1nc(C)c(-c2ccc(-n3nnc(C(=O)Nc4ccnc(C)c4)c3C3CC3)cc2)c1C [Compound 9-1, 5-cyclopropyl-1-(4-(1-ethyl-3,5-dimethyl-1H-pyrazol-4-yl)phenyl)-N-(2-methylpyridin-4-yl)-1H-1,2,3-triazole-4-carboxamide]
IC50: < 100 nM

O=C(Nc1ccncc1)c1nnn(-c2ccc(-c3ccc(C4CCCC4)cc3)cc2)c1C1CC1 [Compound 7-202]
IC50: 1000 to 3000 nM

N#Cc1ccc(C2=CCC(n3nnc(C(=O)NC4(c5cccnc5)CC4)c3C3CC3)CC2)cc1 (stereo not shown) [Compound 12-9]
IC50: 1000 to 3000 nM

COc1ccccc1-c1ccc(-n2nnc(C(=O)Nc3ccncc3)c2C2CC2)cc1C [Compound 7-261]
IC50: 500 to 1000 nM

Cc1ccc(-n2nnc(C(=O)Nc3ccncc3)c2C2CC2)cc1F [Compound 2-13]
IC50: > 3000 nM

O=C(Nc1ccncc1)c1nnn(-c2ccc(-c3ccc(C(F)F)cc3)cc2)c1C1CC1 [Compound 7-28]
IC50: 100 to 500 nM

CCn1cc(CNC(=O)c2nnn(-c3ccc(-c4c(C)nn5ccccc45)cc3)c2C(C)C)cn1 [Compound 10-11]
IC50: < 100 nM

N#Cc1ccc(-c2cccc(-n3nnc(C(=O)NC4(c5cccnc5)CC4)c3C3CC3)c2)cc1 [Compound 7-9]
IC50: > 3000 nM

Cc1nn(C)c(C)c1-c1ccc(-n2nnc(C(=O)NC(C)(C)c3cccnc3)c2C2CC2)cc1 [Compound 15-13]
IC50: 500 to 1000 nM

Cc1c(-c2ccc(-n3nnc(C(=O)Nc4ccncc4)c3C3CC3)cc2)cnn1-c1ccccc1 [Compound 7-26]
IC50: 100 to 500 nM

Cn1nc(-c2ccccc2)cc1-c1ccc(-n2nnc(C(=O)Nc3ccncc3)c2C2CC2)cc1 [Compound 7-68]
IC50: 100 to 500 nM

O=C(Nc1ccncc1)c1nnn(-c2ccc(-c3cccnc3)cc2)c1C1CC1 [Compound 7-179]
IC50: 1000 to 3000 nM

Cn1cc(-c2cccc(-n3nnc(C(=O)Nc4ccncc4)c3C3CC3)c2)cn1 [Compound 7-326]
IC50: 1000 to 3000 nM

Cc1cc(NC(=O)c2nnn(-c3ccc(-c4c(C)nn(CC(F)(F)F)c4C)cc3)c2C2CC2)ccn1 [Compound 20-1, 5-cyclopropyl-1-(4-(3,5-dimethyl-1-(2,2,2-trifluoroethyl)-1H-pyrazol-4-yl)phenyl)-N-(2-methylpyridin-4-yl)-1H-1,2,3-triazole-4-carboxamide]
IC50: < 100 nM

O=C(Nc1ccnc2[nH]ncc12)c1nnn(-c2ccc(-c3ccccc3)cc2)c1C1CC1 [Compound 14-29]
IC50: 1000 to 3000 nM

CC(C)c1c(C(=O)NC2(c3cccnc3)CC2)nnn1-c1ccc(-c2ccc(C#N)c(F)c2)cc1 [Compound 18-26]
IC50: 1000 to 3000 nM

O=C(N[C@H]1CCC[C@@H](O)C1)c1nnn(-c2ccc(-c3ccccc3)cc2)c1C1CC1 [Compound 14-68]
IC50: 1000 to 3000 nM

NS(=O)(=O)c1ccccc1-c1ccc(-n2nnc(C(=O)Nc3ccncc3)c2C2CC2)cc1 [Compound 7-197]
IC50: 1000 to 3000 nM

O=C(Nc1ccncc1)c1nnn(-c2ccc(-c3ccoc3)cc2)c1C1CC1 [Compound 7-32]
IC50: 100 to 500 nM

CC(=O)c1ccc(-c2ccc(-n3nnc(C(=O)Nc4ccncc4)c3C3CC3)cc2C)cc1 [Compound 7-238]
IC50: 100 to 500 nM

O=C(NC1(c2cncc(Cl)c2)CC1)c1nnn(-c2ccc(-c3cnn(Cc4ccccc4)c3)cc2)c1C1CC1 [Compound 18-19]
IC50: 1000 to 3000 nM

N#CCc1ccc(-c2cccc(-n3nnc(C(=O)NC4(c5cccnc5)CC4)c3C3CC3)c2)c(F)c1 [Compound 7-330]
IC50: > 3000 nM

Cc1ncccc1CNC(=O)c1nnn(-c2ccc(-c3c(C)nn(-c4ccccc4)c3C)cc2)c1C1CC1 [Compound 9-4]
IC50: < 100 nM

O=C(Nc1ccncc1)c1nnn(-c2ccc(-c3ccc(F)cc3)cc2)c1C1CC1 [Compound 7-65]
IC50: 100 to 500 nM

Cc1cc(NC(=O)c2nnn(-c3ccc(-c4ccc(C(F)F)nc4)cc3)c2C2CC2)ccn1 [Compound 15-20]
IC50: 100 to 500 nM

COc1cc(-c2ccc(-n3nnc(C(=O)Nc4ccncc4)c3C3CC3)cc2)ccc1C#N [Compound 7-70]
IC50: 100 to 500 nM

O=C(Nc1ccncc1)c1nnn(-c2ccc(-c3cc[nH]n3)cc2)c1C1CC1 [Compound 7-41]
IC50: 100 to 500 nM

CN(C)c1ccccc1-c1ccc(-n2nnc(C(=O)Nc3ccncc3)c2C2CC2)cc1 [Compound 7-172]
IC50: 1000 to 3000 nM

Cc1cc(-n2nnc(C(=O)Nc3ccncc3)c2C2CC2)ccc1-c1c(C)nn(C)c1C [Compound 7-315]
IC50: 1000 to 3000 nM

Cc1ccc(C2(NC(=O)c3nnn(-c4ccc(-c5ccc(C#N)cc5)cc4F)c3C3CC3)CC2)cn1 [Compound 7-227]
IC50: 100 to 500 nM

Nc1cc(-c2ccc(-n3nnc(C(=O)Nc4ccncc4)c3C3CC3)cc2)n[nH]1 [Compound 7-5]
IC50: > 3000 nM
